In patent publication US10799595B2, “Pyrrolobenzodiazepine conjugates” (priority 2016, dated 2020):

Legend:
MDA-MB-361 = assay: In vitro testing of compound 10, CellTiter-Glo viability, +/- β-glucuronidase, 144 hour assay; type: cell-based; conditions: Homo sapiens, MDA-MB-361, 144 h
Method: DU145 (2000/well, 72 hour assay) and MDA-MB-361 (5000/well, 144 hour assay) cells were plated in culture medium to tissue culture-treated 96-well plates at a volume of 80 μL per well and allowed to adhere overnight. For warhead dilutions, first a 60× concentration of each dose to be tested was prepared by diluting the test articles in DMSO. The 60× dilutions of warhead were then further diluted to a 5× concentration in either cell culture medium alone or cell culture medium containing 5× β-glucuronidase enzyme (Sigma Cat # G0799-25KU). 20 μL of cell culture medium containing test article+/−enzyme was added to cells in triplicate wells, and the final dose curve ranged from 6.4 nM to 61 pM in a stepwise 1:4 serial dilution series. DMSO alone diluted to the culture medium was used as the controls. […] 100 μL of CTG reagent was added to each well, and plates were incubated for 10 minutes at room temperature with gentle shaking, absorbance of each sample was read at 560 nm using an EnVision luminometer (Perkin Elmer). The percent cell viability was calculated by the following formula: (average luminescence of treated samples/average luminescence of control samples)×100.
(§1) IC50 values were determined using logistic non-linear regression analysis with GraphPad Prism software.

DU145 = assay: In vitro testing of compound 10, CellTiter-Glo viability, +/- β-glucuronidase, 72 hour assay; type: cell-based; conditions: Homo sapiens, DU-145, 72 h
Method: DU145 (2000/well, 72 hour assay) and MDA-MB-361 (5000/well, 144 hour assay) cells were plated in culture medium to tissue culture-treated 96-well plates at a volume of 80 μL per well and allowed to adhere overnight. For warhead dilutions, first a 60× concentration of each dose to be tested was prepared by diluting the test articles in DMSO. The 60× dilutions of warhead were then further diluted to a 5× concentration in either cell culture medium alone or cell culture medium containing 5× β-glucuronidase enzyme (Sigma Cat # G0799-25KU). […] DMSO alone diluted to the culture medium was used as the controls. The treated cells were cultured at 37° C./5% CO2 for 72 to 144 hours (depending on established growth kinetics of each particular cell line). At the end of the assay, CellTiter-Glo® (CTG) Luminescent Viability Assay (Promega) was used to determine relative cytotoxicity. 100 μL of CTG reagent was added to each well, and plates were incubated for 10 minutes at room temperature with gentle shaking, absorbance of each sample was read at 560 nm using an EnVision luminometer (Perkin Elmer). The percent cell viability was calculated by the following formula: (average luminescence of treated samples/average luminescence of control samples)×100.
as §1

human tumour cell lines = conditions: cited from earlier work; for activity against a range of human tumour cell lines: quoted from REF 2014 impact study
[1] = test system: human tumour xenograft models; conditions: quoted from REF 2014 impact study; cited from earlier work

## C=C1C[C@H]2[C@H](O)N(C(=O)OCc3ccc(NC(=O)[C@H](C)NC(=O)[C@@H](NC(=O)CCOCCOCCOCCOCCOCCOCCOCCOCCNC(=O)CCN4C(=O)C=CC4=O)C(C)C)cc3)c3cc(OCCCOc4cc5c(cc4OC)C(=O)N4CC(=C)C[C@H]4[C@H](O)N5C(=O)OCc4ccc(O[C@@H]5O[C@H](C(=O)O)[C@@H](O)[C@H](O)[C@H]5O)c([N+](=O)[O-])c4)c(OC)cc3C(=O)N2C1 [Compound 10]
MDA-MB-361; No glucuronidase
  IC50: 778 nM
MDA-MB-361; With glucuronidase
  IC50: 32 nM
DU145; No glucuronidase
  IC50: 6840 nM
DU145; With glucuronidase
  IC50: 201 nM

## C=C1C[C@H]2C=Nc3cc(OCCCCCOc4cc5c(cc4OC)C(=O)N4CC(=C)C[C@H]4C=N5)c(OC)cc3C(=O)N2C1 [SG2057]
Human tumour cell lines
  activity against a range of human tumour cell lines: picomolar/sub-picomolar activity
[1]
  activity in human tumour xenograft models: curative activity

## COc1ccc(C2=CN3C(=O)c4cc(OC)c(OCCCOc5cc6c(cc5OC)C(=O)N5C=C(c7ccc(OC)cc7)C[C@H]5C=N6)cc4N=C[C@@H]3C2)cc1 [SG2202]
Human tumour cell lines
  activity against a range of human tumour cell lines: picomolar/sub-picomolar activity
[1]
  activity in human tumour xenograft models: curative activity

## C=C1C[C@H]2C=Nc3cc(OCCCOc4cc5c(cc4OC)C(=O)N4CC(=C)C[C@H]4C=N5)c(OC)cc3C(=O)N2C1 [SG2000]
Human tumour cell lines; see Hartley et al 2012
  times less cytotoxic than SG2057: at least 10 times
